Like-named read-outs stand apart in the source and are kept apart here. One block for each molecule: values may come before it.
Legend:
in vitro [1] = details: Sprague-Dawley, rat, plasma, pH 7.4
in vitro [2] = details: cynomolgus monkey, plasma, pH 7.4
in vitro [3] = details: beagle, dog, plasma, pH 7.4
[4] = Stability in simulated intestinal fluid (SIF); type: in vitro ADME; details: simulated intestinal fluid (SIF), SIF pH 5.5
Experimental: (§1) When developing any potentially oral-route pharmaceutical agent, the denaturing and pepsin-rich environment of the stomach must be considered. The stability of HM-10/10 was tested in simulated gastric fluid (SGF) and simulated intestinal fluid (SIF) over 120 min. […] Samples were tested at 2 μM.
(§2) For the HM-10/10 stability assay in simulated gastric and intestinal fluids, propantheline was used to confirm retention time and carbutamide was used as the internal standard for calculations.

[5] = Stability in simulated gastric fluid (SGF); type: in vitro ADME; details: SGF pH 1.3
Experimental: as §1, §2

in vitro [6] = details: human, plasma, pH 7.4
in vitro [7] = details: CD-1, mouse, plasma, pH 7.4
[8] = Stability in potassium phosphate buffers of pH 1.3, 5.5 and 7.4; type: physicochemical; details: potassium phosphate buffer; for remaining at 1 h, 2 µM: read-out: % Remaining at 60 min
Experimental: The stability of HM-10/10 under varying pH conditions was determined by adding the compound to potassium phosphate buffers of pH 1.3 (acidic), 5.5 (slightly acidic), and 7.4 (physiological pH), with 7-Ethoxycoumarin used as a control article. Under acidic and slightly acidic conditions, the half-life of HM-10/10 could not be determined, as the percentage of HM-10/10 was higher at the end of the time course than at the beginning (Table 3, Figure 3). […] Samples were tested at 2 µM.
The instrument was equipped with an electrospray ionization source (600 °C) operated in the positive-ion mode.

CYP2C9 = CYP2C9 (Homo sapiens, UniProt P11712)
Sequence of CYP2C9 (P11712 whole entry): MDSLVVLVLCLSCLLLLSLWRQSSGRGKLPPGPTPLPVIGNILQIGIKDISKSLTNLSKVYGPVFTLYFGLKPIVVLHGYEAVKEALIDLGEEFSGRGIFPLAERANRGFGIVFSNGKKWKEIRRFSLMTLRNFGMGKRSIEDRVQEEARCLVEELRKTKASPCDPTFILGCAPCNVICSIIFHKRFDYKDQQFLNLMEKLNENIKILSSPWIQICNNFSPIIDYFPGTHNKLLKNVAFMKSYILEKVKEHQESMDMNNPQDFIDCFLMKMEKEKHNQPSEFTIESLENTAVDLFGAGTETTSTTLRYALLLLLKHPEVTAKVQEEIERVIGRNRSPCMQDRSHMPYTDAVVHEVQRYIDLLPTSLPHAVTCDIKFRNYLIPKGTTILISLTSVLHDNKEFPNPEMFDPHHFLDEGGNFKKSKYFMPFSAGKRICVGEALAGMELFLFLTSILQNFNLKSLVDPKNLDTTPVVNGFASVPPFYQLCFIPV

CYP2C19 [9] = biological target: T1, CYP2C19 (Homo sapiens, UniProt P33261); assay: CYP450 time-dependent inhibition, CYP2C19, pooled human liver microsomes; details: Mephenytoin (2C19)
T1 sequence (P33261 whole entry): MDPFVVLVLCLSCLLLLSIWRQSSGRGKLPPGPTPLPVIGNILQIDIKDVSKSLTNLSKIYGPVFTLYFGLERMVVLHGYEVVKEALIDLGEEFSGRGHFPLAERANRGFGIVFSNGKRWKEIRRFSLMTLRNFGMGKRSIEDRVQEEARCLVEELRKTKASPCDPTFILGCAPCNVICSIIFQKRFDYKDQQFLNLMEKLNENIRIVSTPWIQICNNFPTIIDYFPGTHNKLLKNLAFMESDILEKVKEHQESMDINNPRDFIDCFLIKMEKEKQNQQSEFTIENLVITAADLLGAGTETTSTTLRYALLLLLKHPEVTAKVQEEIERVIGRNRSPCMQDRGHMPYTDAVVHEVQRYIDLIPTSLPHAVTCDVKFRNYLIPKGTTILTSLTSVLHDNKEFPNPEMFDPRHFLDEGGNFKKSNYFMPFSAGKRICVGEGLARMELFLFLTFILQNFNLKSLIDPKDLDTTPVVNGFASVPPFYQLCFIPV

CYP2C19 [10] = biological target: T1, CYP2C19
CYP2C19 [11] = biological target: T1, CYP2C19; assay: in vitro; details: both, microsomes
CYP1A2 = CYP1A2 induction (mRNA expression) in single-donor human hepatocytes; type: in vitro ADME; details: 50 µM (control)
Experimental: RNA isolation and quantification: E-Z 96 Total RNA Kit (Omega Bio-tek, Catalog No. R1034-02) was used for RNA isolation and Quant-iT RNA assay kit (ThermoFisher, Catalog No. Q33140) was used for RNA quantification. The plates were removed from a −80 °C freezer and equilibrated to room temperature. RNA was extracted using the manufacturer’s recommended protocol. Eighty-one microliters of 100% ethanol were added into each well containing 150 µL of lysed sample to make a final ethanol concentration at 35%.
cDNA generation: For cDNA generation, a High-Capacity cDNA Reverse Transcription Kit (Applied Biosystems, Catalog No. 4319983) and QuantStudio 3 PCR system (Applied Biosystems) were used. In this step, 2X Reverse Transcription Master Mix was prepared using the contents of the kit. Then, 10 µL of total RNA was added to 10 µL of 2X Reverse Transcription Master Mix in a microplate and the plate was sealed. This plate was then run in a thermocycler to generate cDNA.
Real time PCR: SsoAdvanced Universal SYBR® Green Supermix (BIO-RAD, Catalog No. 172-5270) and the QuantStudio 3 Real-Time PCR system (Applied Biosystems) were used to perform real-time PCR on the generated cDNA. In this step, a PCR mix was prepared using PCR Supermix, SYBR® primers for the targeted genes, and nuclease-free water. Two microliters of ten-fold diluted cDNA samples (5 µL of cDNA into 45 μL of nuclease-free water) were added to 8 µL of PCR Mix in a microplate and sealed. This plate was then run through the Real-Time PCR system to generate the mRNA expression data.
• Human GAPDH • F: […] • R: […] • Human CYP1A2 • Unique Assay ID: qHsaCID0015160 • Chromosome Location: 15:75045562-75047256 • Human CYP2B6 • F: […] • R: […] • Human CYP3A4 • F: […] • R: […]

[12] = both, human, microsomes, pH 7.4

half-life at 2 µM (in vitro [1]): 77.5 h
remaining at 2 h, 2 µM (in vitro [1]): 95%
half-life at 2 µM (in vitro [2]): 11.1 h
remaining at 2 h, 2 µM (in vitro [2]): 80.3%
half-life at 2 µM (in vitro [3]): 4.1 h
remaining at 2 h, 2 µM (in vitro [3]): 65.7%
half-life at 2 µM [4]: 13.6 h
half-life at 2 µM [5]: 8.7 h
half-life at 2 µM (in vitro [6]): 0.76 h
remaining at 2 h, 2 µM (in vitro [6]): 13.3%
half-life at 2 µM (in vitro [7]): 1.17 h
remaining at 2 h, 2 µM (in vitro [7]): 27%
Structure (SMILES): CC(C)[N+](C)(CCOC(=O)C1c2ccccc2Oc2ccccc21)C(C)C [Propantheline, propantheline]

half-life at 2 µM ([8]; Acidic (pH 1.3)): 13.5 h
remaining at 1 h, 2 µM ([8]; Acidic (pH 1.3)): 89%
half-life at 2 µM ([8]; Physiological pH (pH 7.4)): 11.8 h
remaining at 1 h, 2 µM ([8]; Physiological pH (pH 7.4)): 87.5%
half-life at 2 µM ([8]; Slightly Acidic (pH 5.5)): 16.5 h
remaining at 1 h, 2 µM ([8]; Slightly Acidic (pH 5.5)): 90%
Structure (SMILES): CCOc1ccc2ccc(=O)oc2c1 [7-Ethoxycoumarin, reference compound]

Structure (SMILES): Nc1ccc(S(=O)(=O)Nc2ccnn2-c2ccccc2)cc1 [Sulfaphenazole, sulfaphenazole]
Comments (time-dependent inhibition) (CYP2C9): No TDI
% Inhibition at 50 µM No PI + NADPH (CYP2C9; [12]): 99.2%
% Inhibition at 50 µM No PI − NADPH (CYP2C9; [12]): 99.1%
% Inhibition at 50 µM PI + NADPH (CYP2C9; [12]): 99.7%
% Inhibition at 50 µM PI − NADPH (CYP2C9; [12]): 99.9%

IC50 (CYP2C19 [9]; IC50 (µM) No PI + NADPH, No PI + NADPH): 4.77 µM
IC50 (CYP2C19 [9]; IC50 (µM) No PI − NADPH, No PI − NADPH): 5.39 µM
Comments (time-dependent inhibition) (CYP2C19 [10]): +TDI
inhibition at 30 min, 50 µM (CYP2C19 [11]; pH 7.4, % Inhibition at 50 µM No PI + NADPH): 92.9%
inhibition at 30 min, 50 µM (CYP2C19 [11]; pH 7.4, % Inhibition at 50 µM No PI − NADPH): 93.1%
inhibition at 30 min, 50 µM (CYP2C19 [11]; pH 7.4, % Inhibition at 50 µM PI + NADPH): 95.8%
inhibition at 30 min, 50 µM (CYP2C19 [11]; pH 7.4, % Inhibition at 50 µM PI − NADPH): 90.7%
Comments (mRNA induction) (CYP1A2): Induced as Expected
Structure (SMILES): COc1ccc2[nH]c([S+]([O-])Cc3ncc(C)c(OC)c3C)nc2c1 (stereo not shown) [Omeprazole, omeprazole]

— article PMC10298982, “Stability Characterization of the Novel Anti-Cancer HM-10/10 HDL-Mimetic Peptide” (International Journal of Molecular Sciences, 2023)
